Measurements reported in patent US6268395A, “Phorbol derivatives having antivirus activity” (Lead Chemical Co., Ltd., priority 1999, dated 2001).
Values joined by “and” are separate entries in the source; they are usually repeats but may differ in a detail not shown here. Equal values may be shown once. “Also recorded” adds a separate entry of the source. Read-outs that look alike come from different tables or passages of the source.

Columns and labels:
HIV-1 = assay: Inhibition of HIV-1-induced cytopathic effect (CPE) in MT-4 cells; assay type: cell-based, HIV-1 (LAV-1) in human MT-4 cells; conditions: for IC100: Human immunodeficiency virus 1, MT4, 120 h; for IC100 / Anti-HIV-1 IC100 (complete prevention of HIV-1-induced CPE) / r = CC0/IC100 / CPE inhibitory effect (in words): MT-4 cells; for r = CC0/IC100: 7200 min; for CPE inhibitory effect (in words): HIV-1
Experimental: (§1) In the experiments, MT-4 cells were used. The cells were incubated at 37° C. under 5% CO2 in RPMI-1640 medium (FCS, Flow laboratories, North Ryde, Australia) supplemented with 100 μg/mL of streptomycin (Meiji Seika, Tokyo, Japan), and 100 U/mL of penicillin G (Banyu Pharmaceutical, Tokyo, Japan).
HIV-1 was obtained from culture supernatant of MOLT-4 cells that had been persistently infected with LAV-1.
j) Assay of cytopathic effect(CPE) of HIV-1 in MT-4 cells
(§2) The inhibitory effect of test compounds on HIV-1-induced cytopathogenicity was measured by the method of Harada, Koyanagi & Yamamoto (1985). MT-4 cells were infected for 1 hour with HIV-1 (at TCID50 of 0.001/well) and non-adsorbed virus was removed by washing. Then, the cells were resuspended in RPMI-1640 medium at a concentration of 1.5×10^5 cells/mL. A 200 μL/well of the cell suspension was cultured for 5 days in days in a 96-well culture plate containing various concentrations (12 doses, maximum 1,000 μg/mL and minimum […]) of the test compounds. Control assays were performed in the absence of test compounds with HIV-1-infected and uninfected cultures. On day 5, the IC100 of the test compound required for completely preventing HIV-1-induced CPE(IC) was determined through an optical microscope and the cell growth was examined to give the CC0 that reduces the viability of MT-4 cells.
A variety of phorbol esters and related compounds were tested for their ability to inhibit the replication and infectivity of HIV-1 in MT-4 cells, a human CD4-positive cell line continually infected with HTLV-1, and the results are presented in Table 3.

[1] = Cell growth / viability of MT-4 cells (cytotoxicity); assay type: cell-based; conditions: human, day 5, read-out: CC0 (concentration that reduces viability of MT-4 cells; minimum cytotoxic concentration)
Experimental: as §1, §2

protein kinase C (PKC) = assay type: biochemical, mouse; conditions: for % Activity of PKC: relative to TPA positive control; for activation of PKC (in words): concentration not given; for PKC activation, positive control: TPA, lipid and calcium chloride present
Experimental: After addition of 0.55 nM [γ-^32 P] ATP (50×10^3 cpm/nmol), the reaction mixture was mixed and allowed to be kept at 37° C. for 30 minutes. Then the reactions were terminated by the addition of 10 μl of ice-cold stop reagent. Aliquots of 35 μL were transferred to the center of peptide binding discs. After 10 minutes, the discs were washed two times with 75 mM orthophosphoric acid. The activity of ^32 P-labeled samples was counted in 10/mL of a scintillation fluid for 1 minute. […] Blank (in the absence of PKC) and control (in the absence of TPA or tested samples) were also carried out. One unit of PKC was defined as that amount of enzyme, which incorporated 1 nmol of phosphate from ATP into its substrate, peptide, per minute under the assay conditions, described above.

[2] = 5 days, NE: Not effective, read-out: Anti-HIV-1 IC100 (complete prevention of HIV-1-induced CPE)

| Structure (SMILES) | IC100 (HIV-1; [2]) [µg/mL] | Anti-HIV-1 IC100 (complete prevention of HIV-1-induced CPE) (HIV-1; 5 days, NE: Not effective) [µg/mL] | r = CC0/IC100 (HIV-1) | MCC at 120 h [1] [µg/mL] | PKC activation (in words) (protein kinase C (PKC); 10 ng to 2.7 μg/mL) | % Activity of PKC (protein kinase C (PKC); 10 ng/mL) | % Activity of PKC (protein kinase C (PKC); 2.7 μg/mL) | activation of PKC (in words) (protein kinase C (PKC)) | CPE inhibitory effect (in words) (HIV-1) | anti-HIV-1 activity (HIV-1; at concentrations up to 500 μg/mL) | PKC activation (in words) (protein kinase C (PKC); high concentrations) | IC100 (HIV-1; read-out: IC100 (complete inhibition of CPE)) [µg/mL] | PKC activation, positive control (protein kinase C (PKC)) [%] | PKC activation, positive control (protein kinase C (PKC); represents 100%) [nmol/mg/min] |
| --- | --- | --- | --- | --- | --- | --- | --- | --- | --- | --- | --- | --- | --- | --- |
| CCCCCCCCCC(=O)O[C@@H]1[C@@H](C)[C@@]2(O)[C@@H](C=C(CO)C[C@]3(O)C(=O)C(C)=C[C@@H]23)[C@@H]2C(C)(C)[C@]12OC(=O)C(C)CC (stereo partly drawn) [Compound 4, 12-O-Decanoylphorbol-13-(2-methylbutyrate)] | 7.81 | 7.8 | 4.01 | 31.3 | no activation | 0% | 0% | did not show any activation of PKC |  |  |  |  |  |  |
| CC1=C[C@H]2[C@@]3(O)[C@H](C)[C@@H](O)[C@]4(O)[C@H]([C@@H]3C=C(CO)C[C@]2(O)C1=O)C4(C)C [Compound 9, Phorbol] |  |  |  | 1000 |  | 8% | 39% | weak activators of PKC | did not show CPE inhibitory effect; also recorded: showed no effect | did not show anti-HIV-1 activity |  |  |  |  |
| CC(=O)OCC1=C[C@H]2[C@@H]3C(C)(C)[C@]3(OC(C)=O)[C@H](OC(C)=O)[C@@H](C)[C@]2(O)[C@@H]2C=C(C)C(=O)[C@]2(O)C1 [Compound 21, 4α-Phorbol-12,13,20-triacetate] | 250 |  | 2.00 | 500 |  | 0% | 39% |  |  |  | enhanced activation of PKC |  |  |  |
| CCCCCCCCCCCC(=O)O[C@@]12[C@H](OC(=O)C(C)CC)[C@@H](C)[C@@]3(O)[C@@H](C=C(CO)C[C@]4(O)C(=O)C(C)=C[C@@H]34)[C@@H]1C2(C)C (stereo partly drawn) [Compound 7, 12-O-(2-Methylbutyroyl)phorbol-13-dodecanoate] | 15.6 |  | 4.01 | 62.5 |  | 16% | 30% |  |  |  |  |  |  |  |
| C/C=C(\C)C(=O)O[C@@]12[C@H](O)[C@@H](C)[C@@]3(O)[C@@H](C=C(COC(=O)CCCCCCC/C=C\C/C=C\CCCCC)C[C@]4(O)C(=O)C(C)=C[C@@H]34)[C@@H]1C2(C)C [Compound 2, 13-O-Tigloylphorobol-20-(9Z,12Z-octadecadienoate)] | 7.81 | 7.8 | 8.00 | 62.5 |  | 14% | 32% |  |  |  |  |  |  |  |
| CCCCCCCCCCCCCC(=O)O[C@@H]1[C@@H](C)[C@@]2(O)[C@@H](C=C(CO)C[C@]3(O)C(=O)C(C)=C[C@@H]23)[C@@H]2C(C)(C)[C@]12OC(C)=O [Compound 8, reference compound] | 0.00048 |  | 65200 | 31.3 |  | 96% and ~100% | 98% and ~100% |  | equipotent |  |  | 0.00048 | 100 | 8400 |
| CO[C@]12CC(COC(C)=O)=C[C@H]3[C@@H]4C(C)(C)[C@]4(OC(C)=O)[C@H](OC(C)=O)[C@@H](C)[C@]3(O)[C@@H]1C=C(C)C2=O [Compound 16, 4-O-Methylphorbol-12,13,20-triacetate] | 31.3 |  | 3.99 | 125 | no activation | 0% | 0% | no activation of PKC | increased in the CPE inhibitory effect |  |  |  |  |  |
